From PubChem BioAssay AID328 (DTP/NCI, 2004) come the findings set out here.

This experiment has as its system BDF1 mice, P388 leukemia ip, median survival T/C. The experiment is described as follows: NCI In Vivo Anticancer Drug Screen. Data for tumor model P388 Leukemia (intraperitoneal) in B6D2F1 (BDF1) mice. The note with it: endpoint: median survival time, higher = longer survival. An outline of the steps:
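Mice carrying the transplantable tumour receive compound or vehicle. Survival is followed in each arm, and the treated measure is divided by the vehicle measure.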

Setting [1] is: dose: 50.0 mg/kg/injection, schedule: Q04DX003 (ip), vehicle: water.
Where [2] appears, read: dose: 100.0 mg/kg/injection, schedule: Q01DX009 (ip), vehicle: water.
[3] abbreviates: dose: 100.0 mg/kg/injection, schedule: Q04DX003 (ip), vehicle: water.
Setting [4] is: dose: 200.0 mg/kg/injection, schedule: Q01DX009 (ip), vehicle: water.
[5] abbreviates: dose: 400.0 mg/kg/injection, schedule: Q01DX009 (ip), vehicle: water.
Setting [6] is: dose: 0.1 mg/kg/injection, schedule: Q01DX010 (ip), vehicle: saline.
The mark [7] stands for this setting: dose: 0.2 mg/kg/injection, schedule: Q01DX010 (ip), vehicle: saline.
Where [8] appears, read: dose: 50.0 mg/kg/injection, schedule: Q01DX009 (ip), vehicle: saline with Tween-80.
Setting [9] is: dose: 100.0 mg/kg/injection, schedule: Q01DX009 (ip), vehicle: saline with Tween-80.
Where [10] appears, read: dose: 200.0 mg/kg/injection, schedule: Q01DX009 (ip), vehicle: saline with Tween-80.
Setting [11] is: dose: 50.0 mg/kg/injection, schedule: Q01DX009 (ip), vehicle: other.
[12] abbreviates: dose: 100.0 mg/kg/injection, schedule: Q01DX009 (ip), vehicle: other.
[13] abbreviates: dose: 200.0 mg/kg/injection, schedule: Q01DX009 (ip), vehicle: other.

Values joined by “and” are separate entries in the source; they are usually repeats but may differ in a detail not shown here. Identical values can stand only once. Toxic doses and inconclusive results are not listed.

Consider `Cc1ccc(/C=C2\NC(=O)NC2=O)cc1`, for which the T/C runs as follows: (dose: 25.0 mg/kg/injection, schedule: Q01DX009 (ip), vehicle: water) 106 % of control; (dose: 50.0 mg/kg/injection, schedule: Q01DX009 (ip), vehicle: water) 106 % of control; under setting [1], 94 % of control; under setting [2], 95 % of control; under setting [3], 106 % of control; under setting [4], 98 % of control. Besides, the T/C reads like this: (dose: 200.0 mg/kg/injection, schedule: Q04DX003 (ip), vehicle: water) 103 % of control; under setting [5], 94 % of control; (dose: 400.0 mg/kg/injection, schedule: Q04DX003 (ip), vehicle: water) 97 % of control.

Regarding `Cc1ccc(S(=O)(=O)N(C)CCC#N)cc1`, the T/C runs as follows: (dose: 100.0 mg/kg/injection, schedule: Q01DX009 (ip), vehicle: Klucel (hydroxypropylcellulose) (HPC)) 90 % of control; (dose: 100.0 mg/kg/injection, schedule: Q04DX003 (ip), vehicle: Klucel (hydroxypropylcellulose) (HPC)) 90 % of control; (dose: 200.0 mg/kg/injection, schedule: Q01DX009 (ip), vehicle: Klucel (hydroxypropylcellulose) (HPC)) 100 % of control; (dose: 200.0 mg/kg/injection, schedule: Q04DX003 (ip), vehicle: Klucel (hydroxypropylcellulose) (HPC)) 100 % of control; (dose: 400.0 mg/kg/injection, schedule: Q01DX009 (ip), vehicle: Klucel (hydroxypropylcellulose) (HPC)) 110 % of control; (dose: 400.0 mg/kg/injection, schedule: Q04DX003 (ip), vehicle: Klucel (hydroxypropylcellulose) (HPC)) 109 % of control.

For the molecule `[N-]=[N+]=CC(=O)CCC(N)C(=O)O` (centres undefined), the T/C runs as follows: (dose: 0.03 mg/kg/injection, schedule: Q01DX010 (ip), vehicle: saline) 113 % of control; under setting [6], 170 % of control; (dose: 0.1 mg/kg/injection, schedule: Q01DX010 (ip), vehicle: water) 150 % of control; under setting [7], 95 % of control and 100 % of control; (dose: 0.2 mg/kg/injection, schedule: Q01DX010 (ip), vehicle: water) 190 % of control; (dose: 0.4 mg/kg/injection, schedule: Q01DX010 (ip), vehicle: water) 155 % of control. The T/C (dose: 0.6 mg/kg/injection, schedule: Q01DX010 (ip), vehicle: water) was 95 % of control and 120 % of control; the T/C (dose: 0.8 mg/kg/injection, schedule: Q01DX010 (ip), vehicle: water) was 100 % of control; the T/C (dose: 2.5 mg/kg/injection, schedule: Q02DX005 (oral), vehicle: other) is 163 % of control; the T/C (dose: 5.0 mg/kg/injection, schedule: Q02DX005 (oral), vehicle: other) was 159 % of control; the T/C (dose: 10.0 mg/kg/injection, schedule: Q02DX005 (oral), vehicle: other) was 186 % of control; the T/C (dose: 15.0 mg/kg/injection, schedule: Q02DX005 (oral), vehicle: other) is 218 % of control. Further, the T/C (dose: 20.0 mg/kg/injection, schedule: Q02DX005 (oral), vehicle: other) was 86 % of control.

`O=C(Nc1ccc(F)cc1)C12CC3CC(CC(C3)C1)C2`: the T/C by setting is: under setting [8], 92 % of control; under setting [9], 92 % of control; under setting [10], 92 % of control.

Take `O=C1N[C@@H]([C@H]2CC[C@H](Cl)CN2)C(=O)N[C@H]1[C@H]1CC[C@H](Cl)CN1`: the T/C was 154 % of control under setting [6]; 181 % of control under setting [7]; 227 % of control (dose: 0.4 mg/kg/injection, schedule: Q01DX010 (ip), vehicle: saline); 170 % of control (dose: 1.44 mg/kg/injection, schedule: Q04DX003 (ip), vehicle: saline); 179 % of control (dose: 1.44 mg/kg/injection, schedule: Q04DX003 (ip), vehicle: water); 184 % of control (dose: 2.4 mg/kg/injection, schedule: Q04DX003 (ip), vehicle: saline). Besides, the T/C by setting is: (dose: 2.4 mg/kg/injection, schedule: Q04DX003 (ip), vehicle: water) 192 % of control; (dose: 2.5 mg/kg/injection, schedule: Q01DX001 (ip), vehicle: saline) 177 % of control; (dose: 4.0 mg/kg/injection, schedule: Q04DX003 (ip), vehicle: saline) 252 % of control; (dose: 4.0 mg/kg/injection, schedule: Q04DX003 (ip), vehicle: water) 259 % of control; (dose: 5.0 mg/kg/injection, schedule: Q01DX001 (ip), vehicle: saline) 209 % of control; (dose: 6.67 mg/kg/injection, schedule: Q04DX003 (ip), vehicle: saline) 118 % of control. Moreover, the T/C (dose: 6.67 mg/kg/injection, schedule: Q04DX003 (ip), vehicle: water) is 118 % of control.

Consider `O=S(CC(Cl)c1ccccc1)c1ccccc1` (centres undefined), for which the T/C under setting [11] was 106 % of control, the T/C under setting [12] is 106 % of control and the T/C under setting [13] was 100 % of control.

For `CCSC1(SCC)C(=O)OC2=C(CCCCCC2)C1N(C)C` (centres undefined), the T/C runs as follows: under setting [8], 96 % of control; under setting [9], 99 % of control; under setting [10], 99 % of control.

Turning to `C[n+]1ccc(Nc2ccc(NC(=O)c3ccc(N)cc3)cc2)cc1`, the T/C by setting is: (dose: 12.5 mg/kg/injection, schedule: Q01DX009 (ip), vehicle: water) 101 % of control; (dose: 12.5 mg/kg/injection, schedule: Q04DX003 (ip), vehicle: water) 100 % of control; (dose: 25.0 mg/kg/injection, schedule: Q04DX003 (ip), vehicle: water) 98 % of control; under setting [1], 100 % of control and 106 % of control; under setting [2], 155 % of control; under setting [3], 116 % of control and 117 % of control. Moreover, the T/C reads like this: under setting [4], 154 % of control; under setting [5], 180 % of control; (dose: 500.0 mg/kg/injection, schedule: Q04DX003 (ip), vehicle: water) 123 % of control; (dose: 600.0 mg/kg/injection, schedule: Q04DX003 (ip), vehicle: water) 103 % of control.

Consider `O=C(NCCN1CC1)C(=O)NCCN1CC1`, for which the T/C runs as follows: (dose: 1.56 mg/kg/injection, schedule: Q04DX003 (ip), vehicle: saline with Tween-80) 250 % of control; (dose: 3.12 mg/kg/injection, schedule: Q04DX003 (ip), vehicle: saline with Tween-80) 173 % of control; (dose: 6.25 mg/kg/injection, schedule: Q04DX003 (ip), vehicle: saline with Tween-80) 105 % of control.

For the molecule `CN(C)/C=C/C=C1C(=O)N(C)C(=O)N(C)C1=O`, the T/C is 94 % of control under setting [11], 97 % of control under setting [12] and 102 % of control under setting [13].

In the case of `CS(=O)(=O)OCCC#N`, the T/C was 113 % of control (dose: 25.0 mg/kg/injection, schedule: Q01DX009 (ip), vehicle: saline); 91 % of control and 104 % of control (dose: 50.0 mg/kg/injection, schedule: Q01DX009 (ip), vehicle: saline); 113 % of control (dose: 100.0 mg/kg/injection, schedule: Q01DX009 (ip), vehicle: saline); 110 % of control (dose: 100.0 mg/kg/injection, schedule: Q04DX003 (ip), vehicle: alcohol); 95 % of control (dose: 150.0 mg/kg/injection, schedule: Q01DX009 (ip), vehicle: saline).

With `CCCCCCCCCCCC(=O)CCC`, the T/C (dose: 100.0 mg/kg/injection, schedule: Q04DX003 (ip), vehicle: other) is 100 % of control; the T/C (dose: 200.0 mg/kg/injection, schedule: Q04DX003 (ip), vehicle: other) is 91 % of control and 100 % of control; the T/C (dose: 400.0 mg/kg/injection, schedule: Q04DX003 (ip), vehicle: other) was 91 % of control and 100 % of control.

Regarding `CCCCCn1c(Cl)c(/C=N\Nc2ccccc2[N+](=O)[O-])c2ccccc21`, the T/C reads like this: (dose: 100.0 mg/kg/injection, schedule: Q01DX001 (ip), vehicle: Klucel (hydroxypropylcellulose) (HPC)) 105 % of control; (dose: 200.0 mg/kg/injection, schedule: Q01DX001 (ip), vehicle: Klucel (hydroxypropylcellulose) (HPC)) 96 % of control; (dose: 400.0 mg/kg/injection, schedule: Q01DX001 (ip), vehicle: Klucel (hydroxypropylcellulose) (HPC)) 118 % of control.

Take `O=C(NNc1ccccc1)C12CC3CC(CC(C3)C1)C2`: the T/C under setting [8] was 96 % of control and the T/C under setting [9] is 91 % of control.
